According to US20030232860A1, “Medicine comprising dicyanopyridine derivative” (priority 2000, published 2003):
Where a name gives a salt, the structure may show the parent alone.

First: N#Cc1c(N)nc(SCc2ccccc2)c(C#N)c1-c1ccccc1 [Example 217]
Second: N#Cc1c(N)nc(SCc2ccccc2)c(C#N)c1Cc1ccccc1 [Example 437]
The melting point of the first is higher: 212 to 213 °C for the first, 188 to 189 °C for the second.

First: CSc1nc(N)c(C#N)c(-c2ccccc2)c1C#N [Example 76]
Second: COc1nc(SC)c(C#N)c(-c2ccccc2)c1C#N [Example 371]
The melting point of the first is higher: 297 °C for the first, 168 to 170 °C for the second.

CCC(=O)Nc1nc(OC)c(C#N)c(-c2ccccc2F)c1C#N [Example 401, N-[3,5-dicyano-4-(2-fluorophenyl)-6-methoxypyridin-2-yl]propionamide] and COCC(=O)Nc1nc(OC)c(C#N)c(-c2ccccc2F)c1C#N [Example 60, N-[3,5-dicyano-4-(2-fluorophenyl)-6-methoxypyridin-2-yl]-2-methoxyacetamide] fall in the same range of melting point: 168 to 169 °C for the first, 168 to 169 °C for the second.

Compared with CCC(=O)N(C(=O)CC)c1nc(OC)c(C#N)c(-c2ccccc2F)c1C#N [Example 73, 2-dipropanoylamino-4-(2-fluorophenyl)-6-methoxypyridine-3,5-dicarbonitrile], COc1nc(NC(=O)COC(C)=O)c(C#N)c(-c2ccccc2F)c1C#N [Example 397, [3,5-dicyano-4-(2-fluorophenyl)-6-methoxypyridin-2-ylcarbamoyl]methyl acetate] is lower in melting point: 160 to 161 °C for the first, 151 to 153 °C for the second.

First: CSc1nc(N)c(C#N)c(-c2ccc(C(=O)O)cc2)c1C#N [Example 29, 4-(2-amino-3,5-dicyano-6-methylsulfanylpyridin-4-yl)benzoic acid]
Second: CSc1nc(N)c(C#N)c(-c2ccco2)c1C#N [Example 84]
The melting point of the first is higher: 288 to 290 °C for the first, 229 to 230 °C for the second.

First: COc1nc(NC(=O)NCCO)c(C#N)c(-c2ccccc2F)c1C#N [Example 420, 1-[3,5-dicyano-4-(2-fluorophenyl)-6-methoxypyridin-2-yl]-3-(2-hydroxyethyl)ur ea]
Second: COc1nc(NC(=O)CCc2ccccc2)c(C#N)c(-c2ccccc2F)c1C#N [Example 402, N-[3,5-dicyano-4-(2-fluorophenyl)-6-methoxypyridin-2-yl]-3-phenylpropionamide]
The melting point of the first is lower: 140 to 144 °C for the first, 183 to 184 °C for the second.

First: COc1nc(NC(C)=O)c(C#N)c(-c2c(F)cccc2F)c1C#N [Example 63, N-[3,5-dicyano-4-(2,6-difluorophenyl)-6-methoxypyridin-2-yl]acetamide]
Second: COC(=O)CNc1nc(OC)c(C#N)c(-c2ccccc2)c1C#N [Example 363, methyl [(3,5-dicyano-6-methoxy-4-phenylpyridin-2-yl)amino]acetate]
The melting point of the first is higher: 200 to 201 °C for the first, 140 to 141 °C for the second.

First: N#Cc1c(N)nc(O)c(C#N)c1Cc1ccccc1 [Example 434]
Second: N#Cc1c(N)nc(SCc2ccccc2)c(C#N)c1-c1cccs1 [Example 386]
The melting point of the first is higher: 314 to 315 °C for the first, 208 to 209 °C for the second.

First: N#Cc1c(N)nc(-n2ccnc2)c(C#N)c1-c1ccccc1 [Example 211]
Second: COc1nc(F)c(C#N)c(-c2ccccc2)c1C#N [Example 43, 2-fluoro-6-methoxy-4-phenylpyridine-3,5-dicarbonitrile]
The melting point of the first is higher: 256 to 258 °C for the first, 156 to 158 °C for the second.

First: COc1nc(N)c(C#N)c(-c2ccc3cc[nH]c3c2)c1C#N (as salt: salt) (hydrate or solvate) [Example 171]
Second: COc1nc(N)c(C#N)c(-c2ccc3nc[nH]c3c2)c1C#N (as salt: HCl) [Example 173]
The melting point of the first is lower: 270 to 272 °C for the first, 299 to 300 °C for the second.

In the case of CSc1nc(N)c(C#N)c(-c2c[nH]cn2)c1C#N (as salt: HCl) (hydrate or solvate) [Example 82], the melting point is reported as 272 to 273 °C (dec.).
Compound N#Cc1c(N)nc(Cl)c(C#N)c1-c1ccccc1 [Example 9, 2-amino-6-chloro-4-phenylpyridine-3,5-dicarbonitrile] has a melting point greater than 300 °C.
With COc1nc(O)c(C#N)c(-c2ccccc2)c1C#N [Example 25, 2-hydroxy-6-methoxy-4-phenylpyridine-3,5-dicarbonitrile] the melting point was 255 to 257 °C (dec.).
